Experimental data from ChEMBL document CHEMBL3112450, “Synthesis and in vitro antitumor evaluation of primary amine substituted quinazoline linked benzimidazole” (Bioorg Med Chem Lett, 2014).

How the values were obtained:
Format in all cases: functional
[1] = Cytotoxicity against human OVCAR4 cells assessed as cell growth at 10^-7 M after 48 hrs by SRB assay; conditions: OVCAR-4, 48 h, read-out: Activity
RPMI-8226 [2] = assay: Cytotoxicity against human RPMI8226 cells after 48 hrs by SRB assay; conditions: RPMI-8226, 48 h
PC-3 [3] = assay: Cytotoxicity against human PC3 cells assessed as cell growth at 10^-4 M after 48 hrs by SRB assay; conditions: PC-3, 48 h, read-out: Activity
Malme-3M [4] = assay: Cytotoxicity against human MALME-3M cells assessed as cell growth at 10^-7 M after 48 hrs by SRB assay; conditions: read-out: Activity
NCI-H322M = assay: Cytotoxicity against human NCI-H322M cells assessed as cell growth at 10^-7 M after 48 hrs by SRB assay; conditions: read-out: Activity
NCI-H23 = assay: Cytotoxicity against human NCI-H23 cells assessed as cell growth at 10^-7 M after 48 hrs by SRB assay; conditions: NCI-H23, 48 h, read-out: Activity
RPMI-8226 [5] = assay: Cytotoxicity against human RPMI8226 cells assessed as cell growth at 10^-7 M after 48 hrs by SRB assay; conditions: RPMI-8226, 48 h, read-out: Activity
MDA-MB-468 = assay: Cytotoxicity against human MDA-MB-468 cells assessed as cell growth at 10^-8 M after 48 hrs by SRB assay; conditions: MDA-MB-468, 48 h, read-out: Activity
MCF7 [6] = assay: Cytotoxicity against human MCF7 cells assessed as cell growth at 10^-8 M after 48 hrs by SRB assay; conditions: MCF7, 48 h, read-out: Activity
[7] = Cytotoxicity against human UO31 cells assessed as cell growth at 10^-8 M after 48 hrs by SRB assay; conditions: UO-31, 48 h, read-out: Activity
M14 [8] = assay: Cytotoxicity against human M14 cells assessed as cell growth at 10^-4 M after 48 hrs by SRB assay; conditions: M14, 48 h, read-out: Activity
SF-539 = assay: Cytotoxicity against human SF539 cells assessed as cell growth at 10^-4 M after 48 hrs by SRB assay; conditions: SF-539, 48 h, read-out: Activity
RPMI-8226 [9] = assay: Cytotoxicity against human RPMI8226 cells assessed as cell growth at 10^-4 M after 48 hrs by SRB assay; conditions: RPMI-8226, 48 h, read-out: Activity
IGROV-1 = assay: Cytotoxicity against human IGROV1 cells assessed as cell growth at 10^-8 M after 48 hrs by SRB assay; conditions: IGROV-1, 48 h, read-out: Activity
UACC-62 = assay: Cytotoxicity against human UACC62 cells assessed as cell growth at 10^-8 M after 48 hrs by SRB assay; conditions: UACC-62, 48 h, read-out: Activity
M14 [10] = assay: Cytotoxicity against human M14 cells assessed as cell growth at 10^-8 M after 48 hrs by SRB assay; conditions: M14, 48 h, read-out: Activity
Malme-3M [11] = assay: Cytotoxicity against human MALME-3M cells assessed as cell growth at 10^-8 M after 48 hrs by SRB assay; conditions: read-out: Activity
SF-268 [12] = assay: Cytotoxicity against human SF268 cells assessed as cell growth at 10^-8 M after 48 hrs by SRB assay; conditions: SF-268, 48 h, read-out: Activity
HT-29 [13] = assay: Cytotoxicity against human HT-29 cells assessed as cell growth at 10^-8 M after 48 hrs by SRB assay; conditions: HT-29, 48 h, read-out: Activity
NCI-H522 = assay: Cytotoxicity against human NCI-H522 cells assessed as cell growth at 10^-8 M after 48 hrs by SRB assay; conditions: NCI-H522, 48 h, read-out: Activity
HL-60(TB) = assay: Cytotoxicity against human HL-60(TB) cells assessed as cell growth at 10^-8 M after 48 hrs by SRB assay; conditions: HL-60, 48 h, read-out: Activity
CCRF-CEM = assay: Cytotoxicity against human CCRF-CEM cells assessed as cell growth at 10^-8 M after 48 hrs by SRB assay; conditions: read-out: Activity
SN12C = assay: Cytotoxicity against human SN12C cells after 48 hrs by SRB assay
CAKI-1 [14] = assay: Cytotoxicity against human Caki1 cells after 48 hrs by SRB assay; conditions: CAKI-1, 48 h
OVCAR-3 = assay: Cytotoxicity against human OVCAR3 cells after 48 hrs by SRB assay; conditions: OVCAR-3, 48 h
Malme-3M [15] = assay: Cytotoxicity against human MALME-3M cells after 48 hrs by SRB assay
SF-268 [16] = assay: Cytotoxicity against human SF268 cells after 48 hrs by SRB assay; conditions: SF-268, 48 h
HCT-15 = assay: Cytotoxicity against human HCT15 cells after 48 hrs by SRB assay; conditions: HCT-15, 48 h
HOP-92 = assay: Cytotoxicity against human HOP92 cells assessed as growth inhibition at 10 uM after 48 hrs by SRB assay; conditions: HOP-92, 48 h, read-out: GI
ACHN = assay: Cytotoxicity against human ACHN cells assessed as cell growth at 10^-6 M after 48 hrs by SRB assay; conditions: read-out: Activity
M14 [17] = assay: Cytotoxicity against human M14 cells assessed as cell growth at 10^-6 M after 48 hrs by SRB assay; conditions: M14, 48 h, read-out: Activity
SF-268 [18] = assay: Cytotoxicity against human SF268 cells assessed as cell growth at 10^-6 M after 48 hrs by SRB assay; conditions: SF-268, 48 h, read-out: Activity
HT-29 [19] = assay: Cytotoxicity against human HT-29 cells assessed as cell growth at 10^-6 M after 48 hrs by SRB assay; conditions: HT-29, 48 h, read-out: Activity
HCC 2998 = assay: Cytotoxicity against human HCC2998 cells assessed as cell growth at 10^-6 M after 48 hrs by SRB assay; conditions: HCC 2998, 48 h, read-out: Activity
COLO 205 = assay: Cytotoxicity against human COLO205 cells assessed as cell growth at 10^-6 M after 48 hrs by SRB assay; conditions: COLO 205, 48 h, read-out: Activity
MCF7 [20] = assay: Cytotoxicity against human MCF7 cells assessed as cell growth at 10^-7 M after 48 hrs by SRB assay; conditions: MCF7, 48 h, read-out: Activity
PC-3 [21] = assay: Cytotoxicity against human PC3 cells assessed as cell growth at 10^-7 M after 48 hrs by SRB assay; conditions: PC-3, 48 h, read-out: Activity
CAKI-1 [22] = assay: Cytotoxicity against human Caki1 cells assessed as cell growth at 10^-7 M after 48 hrs by SRB assay; conditions: CAKI-1, 48 h, read-out: Activity
A498 = assay: Cytotoxicity against human A498 cells assessed as cell growth at 10^-7 M after 48 hrs by SRB assay; conditions: A498, 48 h, read-out: Activity
786-0 = assay: Cytotoxicity against human 786-0 cells assessed as cell growth at 10^-7 M after 48 hrs by SRB assay; conditions: 786-0, 48 h, read-out: Activity

In the case of `C=CCn1c(C)nc2ccc(Nc3nc(Nc4ccc5nc(C)n(CC=C)c5c4)c4ccccc4n3)cc21`, the growth at 0.1 µM [1] is reported as 95%, the GI50 (RPMI-8226 [2]) is reported as 1.87 µM and the LC50 (RPMI-8226 [2]) is reported as greater than 100 µM. For the same compound, the growth at 100 µM (PC-3 [3]) was -46%, the growth at 0.1 µM (Malme-3M [4]) was 92% and the growth at 0.1 µM (NCI-H322M) was 90%. The growth at 0.1 µM (NCI-H23) was 91%, the growth at 0.1 µM (RPMI-8226 [5]) was 99% and the growth at 0.01 µM (MDA-MB-468) was 93%. It also gave a growth at 0.01 µM (MCF7 [6]) of 92%, a growth at 0.01 µM [7] of 84% and a growth at 100 µM (M14 [8]) of -7%. For the same compound, the growth at 100 µM (SF-539) was -61%, the growth at 100 µM (RPMI-8226 [9]) was 5% and the growth at 0.01 µM (IGROV-1) was 100%. For the same compound, the growth at 0.01 µM (UACC-62) was 96%, the growth at 0.01 µM (M14 [10]) was 96% and the growth at 0.01 µM (Malme-3M [11]) was 91%. For the same compound, the growth at 0.01 µM (SF-268 [12]) was 90%, the growth at 0.01 µM (HT-29 [13]) was 102% and the growth at 0.01 µM (NCI-H522) was 97%. It also gave a growth at 0.01 µM (HL-60(TB)) of 97%, a growth at 0.01 µM (CCRF-CEM) of 97% and a GI50 (SN12C) of 1.62 µM. It also gave an LC50 (SN12C) of 5.45 µM, a TGI (SN12C) of 2.98 µM and a GI50 (CAKI-1 [14]) of 1.72 µM. For the same compound, the TGI (CAKI-1 [14]) was 3.36 µM, the GI50 (OVCAR-3) was 1.7 µM and the TGI (OVCAR-3) was 3.08 µM. It also gave a GI50 (Malme-3M [15]) of 1.9 µM, a TGI (Malme-3M [15]) of 3.68 µM and a GI50 (SF-268 [16]) of 1.54 µM. For the same compound, the TGI (SF-268 [16]) was 3.22 µM, the GI50 (HCT-15) was 1.77 µM and the TGI (HCT-15) was 3.55 µM. It also gave an inhibition of growth at 10 µM (HOP-92) of 50%, a growth at 1 µM (ACHN) of 91% and a growth at 1 µM (M14 [17]) of 88%. The growth at 1 µM (SF-268 [18]) was 79%, the growth at 1 µM (HT-29 [19]) was 101% and the growth at 1 µM (HCC 2998) was 96%. It also gave a growth at 1 µM (COLO 205) of 78%, a growth at 0.1 µM (MCF7 [20]) of 91% and a growth at 0.1 µM (PC-3 [21]) of 88%. For the same compound, the growth at 0.1 µM (CAKI-1 [22]) was 90%, the growth at 0.1 µM (A498) was 64% and the growth at 0.1 µM (786-0) was 98%.
For `C=CCn1c(C)nc2ccc(Nc3nc(NCCO)nc4ccccc34)cc21`, the inhibition of growth at 10 µM (HOP-92) was 30%.
With `C=CCn1c(C)nc2ccc(Nc3nc(Nc4ccc(F)cc4)nc4ccccc34)cc21` the growth at 0.1 µM [1] was 95%, the GI50 (RPMI-8226 [2]) was 1.85 µM and the LC50 (RPMI-8226 [2]) was greater than 100 µM. For the same compound, the TGI (RPMI-8226 [2]) was 4.57 µM, the growth at 100 µM (PC-3 [3]) was -79% and the growth at 0.1 µM (Malme-3M [4]) was 98%. It also gave a growth at 0.1 µM (NCI-H322M) of 96%, a growth at 0.1 µM (NCI-H23) of 87% and a growth at 0.1 µM (RPMI-8226 [5]) of 103%. For the same compound, the growth at 0.01 µM (MDA-MB-468) was 78%, the growth at 0.01 µM (MCF7 [6]) was 91% and the growth at 0.01 µM [7] was 87%. For the same compound, the growth at 100 µM (M14 [8]) was -44%, the growth at 100 µM (SF-539) was -92% and the growth at 100 µM (RPMI-8226 [9]) was -36%. The growth at 0.01 µM (IGROV-1) was 95%, the growth at 0.01 µM (UACC-62) was 99% and the growth at 0.01 µM (M14 [10]) was 93%. It also gave a growth at 0.01 µM (Malme-3M [11]) of 97%, a growth at 0.01 µM (SF-268 [12]) of 88% and a growth at 0.01 µM (HT-29 [13]) of 100%. The growth at 0.01 µM (NCI-H522) was 89%, the growth at 0.01 µM (HL-60(TB)) was 94% and the growth at 0.01 µM (CCRF-CEM) was 99%. It also gave a GI50 (SN12C) of 2.78 µM, an LC50 (SN12C) greater than 100 µM and a TGI (SN12C) of 15.1 µM. For the same compound, the GI50 (CAKI-1 [14]) was 6.86 µM, the LC50 (concentration causing 50% net cell kill) (CAKI-1 [14]) was 92.6 µM and the TGI (CAKI-1 [14]) was 27.5 µM. The GI50 (OVCAR-3) was 5.04 µM, the LC50 (OVCAR-3) was 46.3 µM and the TGI (OVCAR-3) was 17.8 µM. For the same compound, the GI50 (Malme-3M [15]) was 13.1 µM, the LC50 (Malme-3M [15]) was 97.3 µM and the TGI (Malme-3M [15]) was 35.7 µM. The GI50 (SF-268 [16]) was 8.69 µM, the LC50 (50% lethal concentration) (SF-268 [16]) was 82.3 µM and the TGI (SF-268 [16]) was 27.8 µM. The GI50 (HCT-15) was 2.84 µM, the LC50 (HCT-15) was greater than 100 µM and the TGI (HCT-15) was 10.4 µM. It also gave a growth at 1 µM (ACHN) of 94%, a growth at 1 µM (M14 [17]) of 94% and a growth at 1 µM (SF-268 [18]) of 94%. For the same compound, the growth at 1 µM (HT-29 [19]) was 91%, the growth at 1 µM (HCC 2998) was 98% and the growth at 1 µM (COLO 205) was 95%. For the same compound, the growth at 0.1 µM (MCF7 [20]) was 87%, the growth at 0.1 µM (PC-3 [21]) was 92% and the growth at 0.1 µM (CAKI-1 [22]) was 102%. For the same compound, the growth at 0.1 µM (A498) was 83% and the growth at 0.1 µM (786-0) was 98%.
